Measured values: PubChem BioAssay AID1259411 (Chemical Carcinogenesis Research Information System (CCRIS), 2018)
Activity calls are given as the source filed them. How the calls were made is not given here.

System: rodent carcinogenicity bioassays, tumor incidence
Experiment: CCRIS carcinogenicity studies
In short: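 Archive of carcinogenicity, mutagenicity, tumor promotion and tumor inhibition results drawn from journals, NCI reports and other sources, expert-reviewed; covers 1985-2011 and is no longer updated.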

Q: With COc1ccc2c3c(cccc13)OC([N+](=O)[O-])=C2 as the compound, how does the carcinogen call (Species: RAT, Strain/Sex: WISTAR/MALE, Route: SUBCUTANEOUS, Dose: 0, 0.5 MG IN DMSO 1/WK FOR DURATION OF STUDY (TOTAL DOSE: 0; 10.23 MG) (STUDY DURATION: 156 D), Dose: 0, 0.5 MG IN DMSO 1/WK FOR DURATION OF STUDY (TOTAL DOSE: 0; 10.23 MG) (STUDY DURATION: 156 D), Tumor Site: Type of Lesion: INJECTION SITE: FIBROSARCOMA) read?
A: The carcinogen call was “active; positive”.

Q: How did the carcinogen call (Species: MOUSE, Strain/Sex: B6C3F1/FEMALE, Route: ORAL, Dose: 0, 2.0, 3.9 PPM IN DIET, TWA, Dose: 0, 2.0, 3.9 PPM IN DIET, TWA) turn out when O=S1OCC2C(CO1)C1(Cl)C(Cl)=C(Cl)C2(Cl)C1(Cl)Cl (centres undefined) was run?
A: Its carcinogen call is “inactive; negative”.

Q: And the carcinogen call (Species: MOUSE, Strain/Sex: NMRI/FEMALE, Route: ORAL, Dose: 0, 2, 6, 18 PPM IN THE DIET FOR 24 MO (STUDY DURATION: 24 MO), Dose: 0, 2, 6, 18 PPM IN THE DIET FOR 24 MO (STUDY DURATION: 24 MO))?
A: Its carcinogen call is “inactive; negative”.

Q: And the carcinogen call (Species: MOUSE, Strain/Sex: NMRI/MALE, Route: ORAL, Dose: 0, 2, 6, 18 PPM IN THE DIET FOR 24 MO (STUDY DURATION: 24 MO), Dose: 0, 2, 6, 18 PPM IN THE DIET FOR 24 MO (STUDY DURATION: 24 MO))?
A: The carcinogen call was “inactive; negative”.

Q: And the carcinogen call (Species: Mouse, Strain/Sex: NMRI Hoe:NMRKf (SPF71)/Female (60/Group), Route: Oral, Dose: 0 (sesame oil), 2, 6, 18 ppm 97.1% endosulfan in diet for 24 mo, study duration 24 mo., Dose: 0 (sesame oil), 2, 6, 18 ppm 97.1% endosulfan in diet for 24 mo, study duration 24 mo.)?
A: The carcinogen call was “inactive; negative”.

Q: And the carcinogen call (Species: Mouse, Strain/Sex: NMRI Hoe:NMRKf (SPF71)/Male (60/Group), Route: Oral, Dose: 0 (sesame oil), 2, 6, 18 ppm 97.1% endosulfan in diet for 24 mo, study duration 24 mo., Dose: 0 (sesame oil), 2, 6, 18 ppm 97.1% endosulfan in diet for 24 mo, study duration 24 mo.)?
A: The carcinogen call was “inactive; negative”.

Q: What about the carcinogen call (Species: RAT, Strain/Sex: OSBORNE-MENDEL/FEMALE, Route: ORAL, Dose: 0, 223, 445 PPM IN DIET, TWA, Dose: 0, 223, 445 PPM IN DIET, TWA) of the same compound?
A: Its carcinogen call is “inactive; negative”.

Q: And the carcinogen call (Species: RAT, Strain/Sex: SPRAGUE-DAWLEY/FEMALE, Route: ORAL, Dose: 0, 3, 7.5, 15, 75 PPM IN THE DIET FOR 104 WK (STUDY DURATION: 104 WK), Dose: 0, 3, 7.5, 15, 75 PPM IN THE DIET FOR 104 WK (STUDY DURATION: 104 WK))?
A: Its carcinogen call is “inactive; negative”.

Q: What about the carcinogen call (Species: RAT, Strain/Sex: SPRAGUE-DAWLEY/MALE, Route: ORAL, Dose: 0, 3, 7.5, 15, 75 PPM IN THE DIET FOR 104 WK (STUDY DURATION: 104 WK), Dose: 0, 3, 7.5, 15, 75 PPM IN THE DIET FOR 104 WK (STUDY DURATION: 104 WK)) of the same compound?
A: Its carcinogen call is “inactive; negative”.

Q: And the carcinogen call (Species: Rat, Strain/Sex: Crl:CD (SD) BR/Female (50/Group), Route: Oral, Dose: 0, 3.0, 7.5, 15.0, 75.0 ppm in corn oil in diet for 104 wk, study duration 104 wk, Dose: 0, 3.0, 7.5, 15.0, 75.0 ppm in corn oil in diet for 104 wk, study duration 104 wk)?
A: Its carcinogen call is “inactive; negative”.

Q: What about the carcinogen call (Species: Rat, Strain/Sex: Crl:CD (SD) BR/Male (50/Group), Route: Oral, Dose: 0, 3.0, 7.5, 15.0, 75.0 ppm in corn oil in diet for 104 wk, study duration 104 wk, Dose: 0, 3.0, 7.5, 15.0, 75.0 ppm in corn oil in diet for 104 wk, study duration 104 wk) of the same compound?
A: The carcinogen call was “inactive; negative”.

Q: For O=[N+]([O-])c1ccc2ccc3cccc4c3c2c1C1OC41 (centres undefined), which carcinogen call (Species: MOUSE, Strain/Sex: B6C3F1/FEMALE, Route: INTRAPERITONEAL, Dose: 0, 7 NMOL (TOTAL DOSE), 1/7, 2/7 AND 4/7 OF THE TOTAL DOSE ADMINISTERED WITHIN 24 HR OF BIRTH AND AT 8 AND 15 D OF AGE) is on record?
A: Its carcinogen call is “inactive; negative”.

Q: What about the carcinogen call (Species: MOUSE, Strain/Sex: B6C3F1/MALE, Route: INTRAPERITONEAL, Dose: 0, 7 NMOL (TOTAL DOSE), 1/7, 2/7 AND 4/7 OF THE TOTAL DOSE ADMINISTERED WITHIN 24 HR OF BIRTH AND AT 8 AND 15 D OF AGE) of the same compound?
A: Its carcinogen call is “inactive; negative”.

Q: Which carcinogen call (Species: MOUSE, Strain/Sex: SWISS/FEMALE, Route: ORAL, Dose: 0, 5 PPM IN DRINKING WATER FOR DURATION OF STUDY (STUDY DURATION: LIFE SPAN)) does the source give for CC(=O)O here?
A: Its carcinogen call is “inactive; negative”.

Q: What about the carcinogen call (Species: MOUSE, Strain/Sex: SWISS/MALE, Route: ORAL, Dose: 0, 5 PPM IN DRINKING WATER FOR DURATION OF STUDY (STUDY DURATION: LIFE SPAN)) of the same compound?
A: Its carcinogen call is “inactive; negative”.

Q: Which carcinogen call (Species: RAT, Strain/Sex: SPRAGUE-DAWLEY/FEMALE, Route: INTRAPERITONEAL, TRANSPLACENTAL, Dose: 0, 1 MG/KG ADMINISTERED TO PREGNANT RATS ON DAY 16, 18 AND 20 OF GESTATION (STUDY DURATION: 1 YR), Tumor Site: Type of Lesion: KIDNEY: RENAL MESENCHYMAL TUMOR) does the source give for CN(C)N=Nc1ccccc1 here?
A: The carcinogen call was “active; positive”.

Q: And the carcinogen call (Species: RAT, Strain/Sex: SPRAGUE-DAWLEY/FEMALE, Route: INTRAPERITONEAL, TRANSPLACENTAL, Dose: 0, 10, 30, 60 MG/KG ADMINISTERED TO PREGNANT RATS ON DAY 20 OF GESTATION (STUDY DURATION: 1 YR), Dose: 0, 10, 30, 60 MG/KG ADMINISTERED TO PREGNANT RATS ON DAY 20 OF GESTATION (STUDY DURATION: 1 YR))?
A: Its carcinogen call is “inactive; negative”.

Q: What about the carcinogen call (Species: RAT, Strain/Sex: SPRAGUE-DAWLEY/MALE,FEMALE, Route: SUBCUTANEOUS, Dose: 50 MG/KG 1/WK FOR LIFE, Tumor Site: Type of Lesion: BRAIN, NERVOUS SYSTEM (CENTRAL)) of the same compound?
A: The carcinogen call was “active; positive”.

Q: And the carcinogen call (Species: RAT, Strain/Sex: SPRAGUE-DAWLEY/MALE, Route: INTRAPERITONEAL, TRANSPLACENTAL, Dose: 0, 1 MG/KG ADMINISTERED TO PREGNANT RATS ON DAY 16, 18 AND 20 OF GESTATION (STUDY DURATION: 1 YR), Tumor Site: Type of Lesion: BRAIN: TUMOR, DENTITIOUS TISSUE: ODONTOMA)?
A: Its carcinogen call is “active; positive”.

Q: What about the carcinogen call (Species: RAT, Strain/Sex: SPRAGUE-DAWLEY/MALE, Route: INTRAPERITONEAL, TRANSPLACENTAL, Dose: 0, 10, 30, 60 MG/KG ADMINISTERED TO PREGNANT RATS ON DAY 20 OF GESTATION (STUDY DURATION: 1 YR), Dose: 0, 10, 30, 60 MG/KG ADMINISTERED TO PREGNANT RATS ON DAY 20 OF GESTATION (STUDY DURATION: 1 YR)) of the same compound?
A: Its carcinogen call is “inactive; negative”.

Q: What about the carcinogen call (Species: RAT, Strain/Sex: STRAIN-BD, Route: ORAL, SUBCUTANEOUS, Dose: 24.8, 43.4 MG/KG 1/WK (MEAN TOTAL DOSE 1.5 G/KG), Tumor Site: Type of Lesion: BRAIN, NERVOUS SYSTEM) of the same compound?
A: Its carcinogen call is “active; positive”.

Q: For O=C1c2ccccc2C(=O)C1c1ccc2ccccc2n1, which carcinogen call (Species: RAT, Strain/Sex: F344/FEMALE, Route: ORAL, Dose: 0, 500, 1700, 5000 PPM IN DIET FOR 106 WK (STUDY DURATION: 111 WK), Dose: 0, 500, 1700, 5000 PPM IN DIET FOR 106 WK (STUDY DURATION: 111 WK), Tumor Site: Type of Lesion: LIVER: HEPATOCELLULAR ADENOMA OR CARCINOMA) is on record?
A: Its carcinogen call is “active; positive”.

Q: What about the carcinogen call (Species: RAT, Strain/Sex: F344/MALE, Route: ORAL, Dose: 0, 500, 1700, 5000 PPM IN DIET FOR 105 WK (STUDY DURATION: 110 WK), Dose: 0, 500, 1700, 5000 PPM IN DIET FOR 105 WK (STUDY DURATION: 110 WK), Tumor Site: Type of Lesion: KIDNEY(RENAL TUBULE): ADENOMA OR CARCINOMA, LIVER: HEPATOCELLULAR ADENOMA, ORAL CAVITY: SQUAMOUS CELL PAPILLOMA, SQUAMOU, Tumor Site: Type of Lesion: KIDNEY(RENAL TUBULE): ADENOMA OR CARCINOMA, LIVER: HEPATOCELLULAR ADENOMA, ORAL CAVITY: SQUAMOUS CELL PAPILLOMA, SQUAMOU) of the same compound?
A: The carcinogen call was “active; positive”.

Q: O=C(Nc1ccccc1)Nc1ccnc(Cl)c1 was tested. Which carcinogen call (Species: Mouse, Strain/Sex: CD-1/Female (60/Group), Route: Oral, Dose: 0, 10, 1000 mg/kg/day of 96.9% forchlorfenuron in diet for 18 mo, study duration 18 mo, Dose: 0, 10, 1000 mg/kg/day of 96.9% forchlorfenuron in diet for 18 mo, study duration 18 mo) did it give?
A: Its carcinogen call is “inactive; negative”.

Q: And the carcinogen call (Species: Mouse, Strain/Sex: CD-1/Male (60/Group), Route: Oral, Dose: 0, 10, 1000 mg/kg/day of 96.9% forchlorfenuron in diet for 18 mo, study duration 18 mo, Dose: 0, 10, 1000 mg/kg/day of 96.9% forchlorfenuron in diet for 18 mo, study duration 18 mo)?
A: Its carcinogen call is “inactive; negative”.

Q: And the carcinogen call (Species: Rat, Strain/Sex: Strain not specified by Department of Pesticides Regulation/Female (70/Group), Route: Oral, Dose: 0, 9, 122, 518 mg/kg/day of 98.5% forchlorfenuron in diet for up to 2 yr, study duration 2 yr, Dose: 0, 9, 122, 518 mg/kg/day of 98.5% forchlorfenuron in diet for up to 2 yr, study duration 2 yr)?
A: Its carcinogen call is “inactive; negative”.

Q: And the carcinogen call (Species: Rat, Strain/Sex: Strain not specified by Department of Pesticides Regulation/Male (70/Group), Route: Oral, Dose: 0, 7, 93, 352 mg/kg/day of 98.5% forchlorfenuron in diet for up to 2 yr, study duration 2 yr, Dose: 0, 7, 93, 352 mg/kg/day of 98.5% forchlorfenuron in diet for up to 2 yr, study duration 2 yr)?
A: The carcinogen call was “inactive; negative”.

Q: Which carcinogen call (Species: RAT, Strain/Sex: SPF/FEMALE, Route: ORAL, Dose: 0, 20% IN DIET FOR DURATION OF STUDY ADMINISTERED TO OFFSPRING OF RATS FED THE SAME DIETS (STUDY DURATION: 130 WK)) does the source give for O=C[C@H](O)[C@@H](O)[C@H](O[C@@H]1O[C@H](CO)[C@H](O)[C@H](O)[C@H]1O)[C@H](O)CO here?
A: Its carcinogen call is “inactive; negative”.

Q: What about the carcinogen call (Species: RAT, Strain/Sex: SPF/MALE, Route: ORAL, Dose: 0, 20% IN DIET FOR DURATION OF STUDY ADMINISTERED TO OFFSPRING OF RATS FED THE SAME DIETS (STUDY DURATION: 130 WK), Tumor Site: Type of Lesion: ADRENAL GLAND: MEDULLARY TUMORS, TESTES: LEYDIG CELL TUMOR) of the same compound?
A: The carcinogen call was “active; positive”.
